Read-outs that look alike come from different tables or passages of the source.
Assays:
hDAT = biological target: T1, hDAT (Homo sapiens, UniProt Q01959); assay: Inhibition of [125I]RTI-55 binding to hDAT in HEK293 cell membranes; conditions: [125I]RTI-55 displacement, HEK-hDAT membranes; IC50 converted to Ki (Cheng-Prusoff); read-out: Transporter DAT
T1 construct: expressed in transfected cells; host or cells: HEK293
Experimental: (§1) Unknowns are weighed and dissolved in DMSO to make a 10 mM stock solution. An initial dilution to 50 μM in assay buffer for binding, or to 1 mM in water for uptake, is made. Subsequent dilutions are made with assay buffer supplemented with DMSO, maintaining a final concentration of 0.1% DMSO. Pipetting is conducted using a Biomek 2000 robotic workstation.
(§2) Inhibition of Radioligand Binding of [125I]RTI-55 to hDAT, hSERT or hNET in Colonla Cells
(§3) Cell preparation: HEK293 cells expressing hDAT, hSERT or hNET inserts are grown to 80% confluence on 150 mm diameter tissue culture dishes and serve as the tissue source. Cell membranes are prepared as follows. Medium is poured off the plate, and the plate is washed with 10 ml of calcium- and magnesium-free phospate-buffered saline. Lysis buffer (10 ml; 2 mM HEPES with 1 mm EDTA) is added. After 10 min, cells are scraped from plates, poured into centrifuge tubes, and centrifuged […] for 20 min. The supernatant fluid is removed, and the pellet is resuspended in 12-32 ml of 0.32 m sucrose using a Ploytron at setting 7 for 10 sec. The resuspension volume depends on the density of binding sites within a cell line and is chosen to reflect binding of 10% or less to the total radioactivity.
(§4) Assay conditions: Each assay tube contains 50 μl of membrane preparation (about 10-15 μg of protein), 25 μl of unknown compound used to define non-specific binding, or buffer(Krebs-HEPES, pH 7.4;122 mM NaCl, 2.5 mM CaCl2, 1.2 mM MgSO4, 10 μM pargyline, 100 μM tropolone,0.2% glucose and 0.2% ascorbic acid, buffered with 25 mM HEPES) […] of [125I]RTI-55 (40-80 pM final concentration) and additional buffer sufficient to bring up the final volume to 250 μl. Membranes are preincubated with unknowns for 10 min prior to the addition of [125I]RTI-55. The assay tubes are incubated to 25° C. for 90 min. Binding is terminated by filtration over GF/F filters using Tomtec 96-well cell harvester. Fliter are washed for six seconds with ice cold saline. Scintillation fluid is added to each square and radioactivity remaining on the filter is determined using Wallac μ- or beta plate reader. Specific binding is defined as the difference in binding observed in the presence and absence of 5 μM mazindol (HEK-hDAT and HEK-hNET) or […] imipramine (HEK-hSERT). Two or three independent competition experiments are conducted with duplicate determinations. GraphPAD Prism is used to analyze the ensuing data, with IC50 values converted to Ki values using the Cheng-Prusoff equation (Ki=IC50/(1+([125I]RTI-55/KdRTI55))).

hNET = biological target: T2, hNET (Homo sapiens, UniProt P23975); assay: Inhibition of [125I]RTI-55 binding to hNET in HEK293 cell membranes; conditions: [125I]RTI-55 displacement, HEK-hNET membranes; IC50 converted to Ki (Cheng-Prusoff); read-out: Transporter NET
T2 construct: expressed in transfected cells; host or cells: HEK293
T2 sequence (P23975 whole entry): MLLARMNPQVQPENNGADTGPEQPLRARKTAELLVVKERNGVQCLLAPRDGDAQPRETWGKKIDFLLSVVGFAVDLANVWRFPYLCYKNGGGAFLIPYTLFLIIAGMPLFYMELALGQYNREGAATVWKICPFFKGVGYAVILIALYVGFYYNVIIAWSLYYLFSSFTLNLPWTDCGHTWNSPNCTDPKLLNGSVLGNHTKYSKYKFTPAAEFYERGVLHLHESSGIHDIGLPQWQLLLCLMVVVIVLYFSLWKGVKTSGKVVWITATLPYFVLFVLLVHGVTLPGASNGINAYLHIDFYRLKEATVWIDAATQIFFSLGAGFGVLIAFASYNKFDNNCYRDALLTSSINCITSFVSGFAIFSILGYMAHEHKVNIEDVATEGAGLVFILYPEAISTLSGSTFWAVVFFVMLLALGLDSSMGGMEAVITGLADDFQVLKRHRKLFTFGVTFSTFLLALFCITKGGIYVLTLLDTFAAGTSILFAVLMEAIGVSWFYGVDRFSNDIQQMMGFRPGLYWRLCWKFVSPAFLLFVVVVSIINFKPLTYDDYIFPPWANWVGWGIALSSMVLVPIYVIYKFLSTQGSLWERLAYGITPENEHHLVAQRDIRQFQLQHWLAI
Experimental: as §1, §2, §3, §4

hSERT = biological target: T3, hSERT (Homo sapiens, UniProt P31645); assay: Inhibition of [125I]RTI-55 binding to hSERT in HEK293 cell membranes
T3 construct: expressed in transfected cells; host or cells: HEK293
T3 sequence (P31645 whole entry): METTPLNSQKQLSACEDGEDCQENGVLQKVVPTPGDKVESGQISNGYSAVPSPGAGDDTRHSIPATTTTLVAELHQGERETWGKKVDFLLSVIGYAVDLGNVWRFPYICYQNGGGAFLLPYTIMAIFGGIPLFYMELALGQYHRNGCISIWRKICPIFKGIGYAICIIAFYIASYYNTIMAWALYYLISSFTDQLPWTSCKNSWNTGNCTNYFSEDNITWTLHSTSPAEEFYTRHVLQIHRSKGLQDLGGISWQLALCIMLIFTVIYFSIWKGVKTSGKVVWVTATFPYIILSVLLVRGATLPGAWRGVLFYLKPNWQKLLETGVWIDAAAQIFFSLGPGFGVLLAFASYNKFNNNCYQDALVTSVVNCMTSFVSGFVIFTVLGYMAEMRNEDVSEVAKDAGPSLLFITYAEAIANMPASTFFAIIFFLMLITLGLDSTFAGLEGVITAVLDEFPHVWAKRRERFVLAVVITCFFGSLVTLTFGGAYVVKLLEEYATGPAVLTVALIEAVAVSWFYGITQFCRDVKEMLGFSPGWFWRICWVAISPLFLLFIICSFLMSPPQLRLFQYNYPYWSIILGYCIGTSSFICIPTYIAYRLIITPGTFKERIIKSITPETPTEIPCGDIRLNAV
Experimental: as §1, §2, §3, §4

[1] = [125I]RTI-55 displacement, HEK-hSERT membranes, IC50 converted to Ki (Cheng-Prusoff), read-out: Transporter SERT

T1 sequence (Q01959 whole entry): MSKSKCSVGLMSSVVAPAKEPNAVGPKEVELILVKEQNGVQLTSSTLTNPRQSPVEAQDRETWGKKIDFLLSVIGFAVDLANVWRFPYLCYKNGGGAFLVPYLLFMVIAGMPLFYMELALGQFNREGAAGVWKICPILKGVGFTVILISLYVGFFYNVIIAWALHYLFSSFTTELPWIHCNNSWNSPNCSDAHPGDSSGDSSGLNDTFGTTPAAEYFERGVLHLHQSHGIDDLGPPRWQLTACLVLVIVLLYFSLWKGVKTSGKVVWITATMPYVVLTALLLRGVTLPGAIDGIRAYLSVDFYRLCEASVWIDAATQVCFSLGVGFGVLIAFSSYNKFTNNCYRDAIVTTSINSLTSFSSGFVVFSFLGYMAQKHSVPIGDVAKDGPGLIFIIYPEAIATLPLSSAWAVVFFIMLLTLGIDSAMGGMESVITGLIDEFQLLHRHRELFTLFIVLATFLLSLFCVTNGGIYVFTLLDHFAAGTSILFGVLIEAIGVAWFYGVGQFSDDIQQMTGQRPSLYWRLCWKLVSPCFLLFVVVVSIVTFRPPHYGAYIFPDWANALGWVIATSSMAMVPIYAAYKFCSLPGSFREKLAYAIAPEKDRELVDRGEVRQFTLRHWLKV

Q: For `CNC[C@@]1(c2ccc(Cl)c(Cl)c2)C[C@@H]1c1ccccc1` [32,221], which Ki (hDAT) is on record?
A: 1380 nM

Q: What about the Ki (hNET) of the same compound?
A: 3.13 µM

Q: What about the Ki (hSERT; [1]) of the same compound?
A: 1040 nM

Q: Which Ki (hDAT) does the source give for `CNC[C@]1(c2ccccc2)C[C@H]1c1ccc2ccccc2c1` [compound 32698] here?
A: 1600 nM

Q: What about the Ki (hNET) of the same compound?
A: 1.27 µM

Q: And the Ki (hSERT)?
A: 14 nM

Q: `CNC[C@]1(c2ccc(Cl)c(Cl)c2)C[C@H]1c1ccc(Cl)c(Cl)c1` [compound 32694] was tested. Which Ki (hDAT) did it give?
A: 1260 nM

Q: What about the Ki (hNET) of the same compound?
A: 3.7 µM

Q: What about the Ki (hSERT; [1]) of the same compound?
A: 1530 nM

Q: What does the source list for `CNC[C@@]1(c2ccccc2)C[C@@H]1c1ccc(Cl)c(Cl)c1` [32,219]?
A: Ki (hDAT): 218 nM; Ki (hNET): 1.87 µM; Ki (hSERT; [1]): 114 nM

Q: For `CNC[C@]1(c2ccc(Cl)c(Cl)c2)C[C@H]1c1ccccc1` [32,222], which Ki (hDAT) is on record?
A: 6600 nM

Q: What about the Ki (hNET) of the same compound?
A: > 10 µM

Q: And the Ki (hSERT; [1])?
A: 4600 nM

Q: With `CNC[C@]1(c2ccccc2)C[C@H]1c1ccccc1` [compound 32696] as the compound, how does the Ki (hDAT) read?
A: 4650 nM

Q: And the Ki (hNET)?
A: 4.3 µM

Q: What about the Ki (hSERT; [1]) of the same compound?
A: > 7300 nM

Q: For `CNC[C@@]1(c2ccc(Cl)c(Cl)c2)C[C@@H]1c1ccc(Cl)c(Cl)c1` [compound 32695], which Ki (hDAT) is on record?
A: 730 nM

Q: What about the Ki (hNET) of the same compound?
A: 2.9 µM

Q: And the Ki (hSERT; [1])?
A: 172 nM

Q: For `CNC[C@]1(c2ccccc2)C[C@H]1c1ccc(Cl)c(Cl)c1` [32,220], which Ki (hDAT) is on record?
A: 1450 nM

Q: And the Ki (hNET)?
A: 1.46 µM

Q: What about the Ki (hSERT) of the same compound?
A: 45 nM

Q: `CNC[C@@]1(c2ccccc2)C[C@@H]1c1ccccc1` [compound 32697] was tested. Which Ki (hDAT) did it give?
A: > 5300 nM

Q: And the Ki (hNET)?
A: 3.9 µM

Q: And the Ki (hSERT; [1])?
A: > 10000 nM
